# Assay results: patent publication US11873295B2, “Allosteric chromenone inhibitors of phosphoinositide 3-kinase (PI3K) for the treatment of disease” (Petra Pharma Corporation, priority 2021, dated 2024)
# Columns and labels:
# [1] = target: T1, human full length PIK3KA Wild-type (p110α/p85α complex) (Homo sapiens, UniProt P42336); assay: PI3K-alpha kinase (PIK3CA) biochemical activity, wild-type, ADP-Glo; conditions: PI3K-α (PIK3CA) biochemical, Soy PI lipid substrate
# T1 construct: Recombinant, catalytically active human full length PIK3KA Wild-type and H1047R mutant were purchased as 1:1 complex; 6xHis (N); purchased EMD Millipore Sigma 14-602M
# Excerpt: (§1) PI3K-Alpha Kinase (PIK3CA) Activity, Wild-Type and H1047R Mutant and Determining IC50 Values for Inhibitors
# (§2) Recombinant, catalytically active human full length PIK3KA Wild-type and H1047R mutant were purchased as 1:1 complex of N-terminal 6× his tagged p110α (catalytic) and untagged p85α (regulatory subunit) from EMD Millipore Sigma (cat. no. 14-602M and 14-792M, respectively). PIP2diC8 (Avanti Polar Lipids Inc., cat. no. 850185) or Soy PI (Avanti Polar Lipids Inc., cat. No. 840044P) was used as lipid substrate. PIP2diC8 or PI lyophilized powder was dissolved in milliQ water to a concentration of 1 mM just before use. 10 mM stock compounds in DMSO were serially diluted 1:3 to generate a 10-point curve and plated using an acoustic liquid handler system (Echo 550 series instrument, Labcyte). A 10× intermediate compound plate (200 uM starting compound concentration and 10% DMSO) was prepared before starting the reaction. A typical reaction mixture (50 uL) comprised 40 mM HEPES buffer, pH 7.4, 25 mM MgCl2, 0.01% v/v triton-X-100, 1% v/v DMSO, 20 mM NaCl, 1-5 nM WT or H1047R PI3K protein, 20 uM ATP, and 50 uM PIP2diC8 or Soy PI. 1% DMSO buffer alone without test compound was employed as MAX control (full activity in the absence of any inhibitor), and no enzyme control was used to determine the level of background Adenosine 5′-diphosphate (ADP) (MIN control). First, Wild-type (WT) and H1047R mutant protein in kinase buffer with all components except ATP were incubated with or without compound at 27° C. for 1 h. After the pre-incubation, the reaction was initiated by the addition of 20 uL of 50 uM ATP (20 uM final concentration). The reaction was allowed to proceed until about 10% conversion of ATP (2 uM ADP) at 27° C. After that time, 5 uL of reaction was mixed with 5 uL of ADP-Kinase Glo Reagent (ADP-Glo Kinase assay kit, Promega cat. no. V9102) supplemented with MgCl2 10 mM to stop the reaction and deplete the remaining ATP for 40 min at room temperature. Then, 10 uL of Kinase Detection Reagent (ADP-Glo Kinase assay kit, Promega cat. no. V9102) was added to simultaneously convert ADP to ATP and allow the newly synthesized ATP to be measured using a luciferase/luciferin reaction. After 30 min at room temperature the light generated was measured using a luminometer (EnVision plate reader, Perkin Elmer). Process data through Genedata-Screener tool. Relative IC50 values are determined using luminescence units by calculating percent inhibition with respect to on-plate “MIN” and “MAX” controls. Data was analyzed using a 4-parameter nonlinear logistic equation (four-parameter logistic concentration-response curve): Y=bot+[(top−bot)/1+(x/IC50)slope] where Y=% inhibition, X=concentration yielding y % inhibition, Bottom=minimum value of y attained by curve, Top=maximum value of y attained by curve and Slope=steepness of curve at IC50. % Inh=[(median Max−x/median Max−median Min)]·100 IC50: concentration of compound that reduces a given response (ligand binding, enzyme response) by 50%. IC50 relative: concentration giving half the compound's maximum response.
# (§3) For IC50 values shown in Table A, “A” means IC50<0.5 μM; “B” means IC50 ranging between 0.5 μM and 1.0 μM; “C” means IC50 ranging between 1 μM and 5 μM; “D” means IC50 ranging between 5 μM and 10 μM; “E” means IC50>10 μM.
# [2] = target: T2, human full length PIK3KA H1047R mutant (p110α/p85α complex) (Homo sapiens, UniProt P42336, H1047R); assay: PI3K-alpha kinase (PIK3CA) biochemical activity, H1047R mutant, ADP-Glo; conditions: PI3K-α (PIK3CA) biochemical, H1047R mutant, Soy PI lipid substrate
# T2 construct: Recombinant, catalytically active human full length PIK3KA Wild-type and H1047R mutant were purchased as 1:1 complex; 6xHis (N); purchased EMD Millipore Sigma 14-792M
# T2 sequence (P42336 whole entry H1047R): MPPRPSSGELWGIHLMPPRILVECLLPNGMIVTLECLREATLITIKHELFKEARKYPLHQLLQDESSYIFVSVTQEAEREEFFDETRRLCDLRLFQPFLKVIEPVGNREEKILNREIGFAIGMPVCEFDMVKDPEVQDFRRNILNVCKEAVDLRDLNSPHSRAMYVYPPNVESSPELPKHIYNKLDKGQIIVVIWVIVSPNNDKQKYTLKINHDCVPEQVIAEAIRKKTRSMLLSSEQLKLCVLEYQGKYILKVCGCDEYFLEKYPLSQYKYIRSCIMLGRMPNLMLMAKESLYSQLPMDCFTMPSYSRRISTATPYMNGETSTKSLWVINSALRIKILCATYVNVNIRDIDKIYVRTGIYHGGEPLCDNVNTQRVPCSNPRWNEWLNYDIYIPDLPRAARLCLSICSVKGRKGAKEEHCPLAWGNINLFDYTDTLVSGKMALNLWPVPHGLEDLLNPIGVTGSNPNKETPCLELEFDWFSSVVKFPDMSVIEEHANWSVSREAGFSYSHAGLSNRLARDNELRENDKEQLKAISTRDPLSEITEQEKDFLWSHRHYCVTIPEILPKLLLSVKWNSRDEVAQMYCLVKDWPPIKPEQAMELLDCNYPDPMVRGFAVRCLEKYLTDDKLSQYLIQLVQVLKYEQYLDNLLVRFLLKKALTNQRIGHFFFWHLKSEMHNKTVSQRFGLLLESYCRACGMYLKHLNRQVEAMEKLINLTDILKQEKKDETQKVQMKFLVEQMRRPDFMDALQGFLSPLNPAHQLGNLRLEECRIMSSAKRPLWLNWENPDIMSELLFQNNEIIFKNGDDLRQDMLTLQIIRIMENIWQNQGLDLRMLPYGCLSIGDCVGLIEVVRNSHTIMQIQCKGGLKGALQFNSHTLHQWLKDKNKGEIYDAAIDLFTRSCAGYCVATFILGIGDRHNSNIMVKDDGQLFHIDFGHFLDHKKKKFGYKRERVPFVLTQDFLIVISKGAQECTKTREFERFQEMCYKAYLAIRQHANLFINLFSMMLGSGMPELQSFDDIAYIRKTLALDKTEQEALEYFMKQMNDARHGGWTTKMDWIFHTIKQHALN
# T2 sequence (P27986 whole entry partner): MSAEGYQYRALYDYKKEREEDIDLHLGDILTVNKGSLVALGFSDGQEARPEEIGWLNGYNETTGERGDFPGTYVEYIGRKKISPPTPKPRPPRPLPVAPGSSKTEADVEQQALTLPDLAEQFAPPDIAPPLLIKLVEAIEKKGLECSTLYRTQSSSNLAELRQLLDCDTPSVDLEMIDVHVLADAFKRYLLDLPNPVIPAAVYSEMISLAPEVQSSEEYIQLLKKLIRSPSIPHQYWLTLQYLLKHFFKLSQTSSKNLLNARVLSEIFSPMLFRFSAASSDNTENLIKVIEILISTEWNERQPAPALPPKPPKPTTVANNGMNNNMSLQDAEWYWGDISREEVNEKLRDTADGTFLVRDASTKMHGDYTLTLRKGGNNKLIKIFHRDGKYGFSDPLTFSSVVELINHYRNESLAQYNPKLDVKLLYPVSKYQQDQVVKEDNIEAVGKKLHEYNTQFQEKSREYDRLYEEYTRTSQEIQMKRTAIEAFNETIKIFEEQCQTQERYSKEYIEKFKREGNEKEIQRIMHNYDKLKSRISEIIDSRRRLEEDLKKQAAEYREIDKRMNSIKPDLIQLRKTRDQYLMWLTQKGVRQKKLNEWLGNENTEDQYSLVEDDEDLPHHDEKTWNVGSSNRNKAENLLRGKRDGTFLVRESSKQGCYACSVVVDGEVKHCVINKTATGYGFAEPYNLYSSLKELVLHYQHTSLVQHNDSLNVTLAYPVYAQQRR
# Excerpt: as §1, §2, §3
# [3] = tested on: PI3K-α (PIK3CA) in MDA-MB-453 cells; assay: PI3K-alpha kinase (PIK3CA) activity in vitro cell based assay, MDA-MB-453 cells, AlphaLisa SureFire; conditions: Homo sapiens, MDA-MB-453, 3 h, 0% FBS, 3 hours treatment, relative IC50
# Description: PI3K-Alpha Kinase (PIK3CA) Activity In Vitro Cell Based Assay and Determining IC50 Values for Inhibitors
# The MDA-MB-453 (ATCC-HTB-131) cell line was obtained from the American Type Culture Collection (Manassas, VA). Cells were maintained in Dulbecco's Modified Eagle Media (DMEM, Gibco 11965-092) supplemented with 10% Fetal Bovine Serum, heat inactivated (FBS HI, Gibco 10082-147), 1× non-essential amino acids (NEAA, Gibco 11140-050), and 1 mM sodium pyruvate (Gibco 11360-070). Cultures were maintained in a humidified incubator at 37° C. under 5% CO2/95% air.
# For compound testing in 0% FBS, MDA-MB-453 cells were seeded at a density of 1.5×10^4 cells per well in white 384-well plates in 20 μl of Minimum Essential Media (MEM) assay media with 1×NEAA, 1 mM sodium pyruvate, and 1 μg/mL human insulin (Sigma I9278). Compounds dissolved in 10 mM stock solutions in DMSO were serially diluted 1:3 in DMSO to generate a 10-point dilution series and plated using an acoustic liquid handler system (Echo 550 Series Liquid Handler, Labcyte). A 5× intermediate compound dilution plate in MEM with 1×NEAA and 1 mM sodium pyruvate (150 μM starting compound concentration in 1.5% DMSO) was then prepared. Five μl of the intermediate serially diluted compounds were added to the cell plate to final concentrations ranging from […] in 0.3% DMSO. 0.3% DMSO alone was used to establish the maximum (MAX) signal and GDC-0032 at a final concentration of 1 μM was used as a reference compound for the minimum (MIN) signal. After 3 hours treatment, the medium was removed, and the cells lysed in 10 μL of 1× SureFire Lysis buffer with shaking for 10 minutes at room temperature. The Acceptor Mix (Reaction Buffer 1+Reaction Buffer 2+Activation Buffer+SureFire Ultra Acceptor Beads) was prepared by diluting Activation buffer 25-fold in combined Reaction Buffer 1 and Reaction Buffer 2. The Acceptor beads were diluted 50-fold in the combined Reaction Buffers. Five μL of Acceptor Mix was added to each well, the plate was sealed and covered with foil and incubated for 1 hour at room temperature. The Donor Mix (dilution buffer+SureFire Ultra Donor Beads) was prepared by diluting Donor Beads 50-fold in dilution buffer. Five μL of the Donor Mix was added to each well and the plate sealed and covered with foil and incubated for 1 hour at room temperature in the dark. The plates were read on a Neo2 plate reader instrument from Biotek using standard AlphaLisa settings. Compounds were tested in duplicate and the average % inhibition at each compound concentration was used to generate a single dose response curve. The data were processed using the Genedata-Screener tool. Relative IC50 values were determined using luminescence units by calculating percent inhibition with respect to the in-plate “MIN” (GDC-0032 reference control) and “MAX” (DMSO) controls. The data was analyzed using a 4-parameter nonlinear logistic equation (four-parameter logistic concentration-response curve): Y=bottom+[(top−bottom)/1+(X/IC50)slope] where Y=% inhibition, X=concentration of inhibitor, bottom=minimum value of y attained by curve-fit, top=maximum value of y attained by curve-fit and slope=steepness of curve at the IC50. % Inhibition=[(signal at X−median Min)/(median Max−median Min)]×100 IC50: concentration of compound that reduces a given response (ligand binding, enzyme response) by 50%. Relative IC50: concentration giving half the compound's maximum response.
# For IC50 values shown in Table B, “A” means IC50<50 nM; “B” means IC50 ranging between 50 nM and 100 nM; “C” means IC50 ranging between 100 nM and 500 nM; “D” means IC50>500 nM.
Compound,IC50 [1] [nM],IC50 [2] [nM],IC50 [3] [nM]
"Cc1cc([C@@H](C)Nc2cncnc2C(=O)O)c2oc(-c3ccccc3)c(C)c(=O)c2c1 [Example 74, 5-[[(1R)-1-(3,6-Dimethyl-4-oxo-2-phenyl-chromen-8-yl)ethyl]amino]pyrimidine-4-carboxylic acid]",> 10000,< 500,
"Cc1cc([C@@H](C)Nc2ccc(Br)cc2C(=O)O)c2oc(-c3ccccc3)c(C)c(=O)c2c1 [Example 77, 5-Bromo-2-[[(1R)-1-(3,6-dimethyl-4-oxo-2-phenyl-chromen-8-yl)ethyl]amino]benzoic acid]",1000 to 5000,< 500,
"Cc1cc([C@@H](C)Nc2ccccc2C(=O)O)c2oc(-c3ccccc3)c(I)c(=O)c2c1 [Example 79, 2-[[(1R)-1-(3-Iodo-6-methyl-4-oxo-2-phenyl-chromen-8-yl)ethyl]amino]benzoic acid 2,2,2-trifluoroacetic acid]",500 to 1000,< 500,
"C[C@@H](Nc1ccccc1C(=O)O)c1cc(F)cc2c(=O)cc(-c3cccc(C(F)F)c3)oc12 [Example 80, 2-[[(1R)-1-[2-[3-(Difluoromethyl)phenyl]-6-fluoro-4-oxo-chromen-8-yl]ethyl]amino]benzoic acid 2,2,2-trifluoroacetic acid]",5000 to 10000,< 500,
"Cc1c(-c2cccc(C(F)F)c2)oc2c([C@@H](C)Nc3ccccc3C(=O)O)cc(F)cc2c1=O [Example 83, 2-[[(1R)-1-[2-[3-(Difluoromethyl)phenyl]-6-fluoro-3-methyl-4-oxo-chromen-8-yl]ethyl]amino]benzoic acid 2,2,2-trifluoroacetic acid]",5000 to 10000,< 500,
"COc1ccc(NC(C)c2cc(C)cc3c(=O)c(C)c(-c4ccccc4)oc23)c(C(=O)O)n1 (stereo not shown) [Example 89, 3-[1-(3,6-Dimethyl-4-oxo-2-phenyl-chromen-8-yl)ethylamino]-6-methoxy-pyridine-2-carboxylic acid 2,2,2-trifluoroacetic acid]",1000 to 5000,< 500,
"Cc1cc(C(C)Nc2cccc(F)c2C(=O)O)c2oc(-c3ccccc3F)cc(=O)c2c1 (stereo not shown) [Example 97, 2-Fluoro-6-[1-[2-(2-fluorophenyl)-6-methyl-4-oxo-chromen-8-yl]ethylamino]benzoic acid 2,2,2-trifluoroacetic acid]",1000 to 5000,< 500,
"Cc1cc([C@@H](C)Nc2cccc(F)c2C(=O)O)c2oc(-c3cccc(F)c3)c(C)c(=O)c2c1 [Example 143, 2-Fluoro-6-[[(1R)-1-[2-(3-fluorophenyl)-3,6-dimethyl-4-oxo-chromen-8-yl]ethyl]amino]benzoic acid 2,2,2-trifluoroacetic acid]",,,< 50
"Cc1cc([C@@H](C)Nc2ccccc2C(=O)O)c2oc(-c3cccc(C#N)c3F)c(C)c(=O)c2c1 [Example 170, 2-[[(1R)-1-[2-(3-Cyano-2-fluoro-phenyl)-3,6-dimethyl-4-oxo-chromen-8-yl]ethyl]amino]benzoic acid]",,,< 50

# Second part, the compound after the results:
IC50 [1] [nM],IC50 [2] [nM],IC50 [3] [nM],Compound
1000 to 5000,< 500,,"C[C@@H](Nc1ccc(Cl)nc1C(=O)O)c1cc(C(F)(F)F)cc2c(=O)cc(-c3ccccc3)oc12 [Example 82, 6-Chloro-3-[[(1R)-1-[4-oxo-2-phenyl-6-(trifluoromethyl)-chromen-8-yl]ethyl]amino]pyridine-2-carboxylic acid]"
5000 to 10000,< 500,,"C[C@@H](Nc1ccccc1C(=O)O)c1cc(C(F)(F)F)cc2c(=O)cc(-c3ccc(F)cc3F)oc12 [Example 90, 2-[[(1R)-1-[2-(2,4-Difluorophenyl)-4-oxo-6-(trifluoromethyl)-chromen-8-yl]ethyl]amino]benzoic acid]"
500 to 1000,< 500,,"Cc1c(-c2cccc(C#N)c2)oc2c([C@@H](C)Nc3ccc(Cl)nc3C(=O)O)cc(C(F)(F)F)cc2c1=O [Example 100, 6-Chloro-3-[[(1R)-1-[2-(3-cyanophenyl)-3-methyl-4-oxo-6-(trifluoromethyl)-chromen-8-yl]ethyl]amino]pyridine-2-carboxylic acid]"
,,< 50,"Cc1cc([C@@H](C)Nc2ccc(C)nc2C(=O)O)c2oc(-c3ccccc3)c(C(F)(F)F)c(=O)c2c1 [Example 116, 6-Methyl-3-[[(1R)-1-[6-methyl-4-oxo-2-phenyl-3-(trifluoromethyl)-chromen-8-yl]ethyl]amino]pyridine-2-carboxylic acid]"
< 500,< 500,,"Cc1cc([C@@H](C)Nc2ccc(Cl)nc2C(=O)O)c2oc(-c3ccccc3)c(C(F)(F)F)c(=O)c2c1 [Example 139, 6-Chloro-3-[[(1R)-1-[6-methyl-4-oxo-2-phenyl-3-(trifluoromethyl)-chromen-8-yl]ethyl]amino]pyridine-2-carboxylic acid 2,2,2-trifluoroacetic acid]"
